In the supplement of paper PMC10883282:

How the values were obtained:
Assay in all cases: relative viability vs DMSO control (72 h) (fraction); higher = more viable cells
[1] = tested on: SK-LMS-1
In short: (§1)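 After seeding at densities set for 80–90% confluence in 384-well plates, sarcoma cell lines waited 24 h before 2.5 µl of serially diluted compound was added. Source plates held 10 mM down to 0.0002 mM. Plates were incubated 72 h at 37 °C with 5% CO2, with 0.1% DMSO vehicle and a 5 µM positive control, and relative viability was taken from ATPLite as percent growth averaged over up to triplicate wells, with 1 set as full and 0 as none.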

[2] = tested on: VA-ES-BJ
In short: as §1

[3] = tested on: KHOS-240S
In short: as §1

[4] = tested on: A204
In short: as §1

[5] = tested on: MES-SA
In short: as §1

[6] = tested on: SW1353
In short: as §1

[7] = tested on: SK-ES-1
In short: as §1

[8] = tested on: RD
In short: as §1

[9] = tested on: SW872
In short: as §1

[10] = tested on: G401
In short: as §1

[11] = tested on: HS729
In short: as §1

[12] = tested on: SW982
In short: as §1

O=C(c1ccc(F)c(F)c1Nc1ccc(I)cc1F)N1CC(O)([C@@H]2CCCCN2)C1 [Cobimetinib]
Conditions	relative viability
[1], 0.00017 µM	1.06
[1], 0.00051 µM	1.09
[1], 0.00152 µM	1.05
[1], 0.00457 µM	1.02
[1], 0.01372 µM	0.989
[1], 0.04115 µM	0.767
[1], 0.1235 µM	0.584
[1], 0.3704 µM	0.398
[1], 1.111 µM	0.299
[1], 3.333 µM	0.1728
[1], 10 µM	0.0129
[2], 0.00017 µM	1.05
[2], 0.00051 µM	1.07
[2], 0.00152 µM	1.05
[2], 0.00457 µM	1.02
[2], 0.01372 µM	0.982
[2], 0.04115 µM	0.906
[2], 0.1235 µM	0.747
[2], 0.3704 µM	0.638
[2], 1.111 µM	0.567
[2], 3.333 µM	0.451
[2], 10 µM	0.209
[3], 0.00017 µM	1.07
[3], 0.00051 µM	1.07
[3], 0.00152 µM	1.09
[3], 0.00457 µM	1.05
[3], 0.01372 µM	1.03
[3], 0.04115 µM	0.936
[3], 0.1235 µM	0.79
[3], 0.3704 µM	0.709
[3], 1.111 µM	0.669
[3], 3.333 µM	0.549
[3], 10 µM	0.0497
[4], 0.00017 µM	1.1
[4], 0.00051 µM	1.11
[4], 0.00152 µM	1.12
[4], 0.00457 µM	1.11
[4], 0.01372 µM	1.079
[4], 0.04115 µM	1.04
[4], 0.1235 µM	1.01
[4], 0.3704 µM	0.807
[4], 1.111 µM	0.616
[4], 3.333 µM	0.424
[4], 10 µM	0.0102
[5], 0.00017 µM	0.934
[5], 0.00051 µM	0.948
[5], 0.00152 µM	0.925
[5], 0.00457 µM	0.899
[5], 0.01372 µM	0.896
[5], 0.04115 µM	0.824
[5], 0.1235 µM	0.786
[5], 0.3704 µM	0.752
[5], 1.111 µM	0.721
[5], 3.333 µM	0.6391
[5], 10 µM	0.0114
[6], 0.00017 µM	0.989
[6], 0.00051 µM	0.983
[6], 0.00152 µM	1
[6], 0.00457 µM	0.979
[6], 0.01372 µM	0.899
[6], 0.04115 µM	0.838
[6], 0.1235 µM	0.778
[6], 0.3704 µM	0.704
[6], 1.111 µM	0.669
[6], 3.333 µM	0.617
[6], 10 µM	0.0141
[7], 0.00017 µM	1.04
[7], 0.00051 µM	1
[7], 0.00152 µM	1.04
[7], 0.00457 µM	1.03
[7], 0.01372 µM	1.04
[7], 0.04115 µM	1.01
[7], 0.1235 µM	1.02
[7], 0.3704 µM	0.982
[7], 1.111 µM	0.923
[7], 3.333 µM	0.842
[7], 10 µM	0.0122
[8], 0.00017 µM	1.1
[8], 0.00051 µM	1.1
[8], 0.00152 µM	1.07
[8], 0.00457 µM	1.02
[8], 0.01372 µM	0.88
[8], 0.04115 µM	0.766
[8], 0.1235 µM	0.636
[8], 0.3704 µM	0.539
[8], 1.111 µM	0.461
[8], 3.333 µM	0.346
[8], 10 µM	0.0053
[9], 0.00017 µM	1.06
[9], 0.00051 µM	1.01
[9], 0.00152 µM	0.923
[9], 0.00457 µM	0.775
[9], 0.01372 µM	0.67
[9], 0.04115 µM	0.622
[9], 0.1235 µM	0.606
[9], 0.3704 µM	0.574
[9], 1.111 µM	0.498
[9], 3.333 µM	0.39
[9], 10 µM	0.00283
[10], 0.00017 µM	0.99
[10], 0.00051 µM	1.03
[10], 0.00152 µM	0.993
[10], 0.00457 µM	0.99
[10], 0.01372 µM	0.951
[10], 0.04115 µM	0.896
[10], 0.1235 µM	0.786
[10], 0.3704 µM	0.643
[10], 1.111 µM	0.396
[10], 3.333 µM	0.0971
[10], 10 µM	0.0011
[11], 0.00017 µM	0.9644
[11], 0.00051 µM	1
[11], 0.00152 µM	0.97
[11], 0.00457 µM	0.962
[11], 0.01372 µM	0.915
[11], 0.04115 µM	0.922
[11], 0.1235 µM	0.876
[11], 0.3704 µM	0.852
[11], 1.111 µM	0.763
[11], 3.333 µM	0.6553
[11], 10 µM	0.241
[12], 0.00017 µM	1.04
[12], 0.00051 µM	1.02
[12], 0.00152 µM	1
[12], 0.00457 µM	1.01
[12], 0.01372 µM	0.98
[12], 0.04115 µM	0.942
[12], 0.1235 µM	0.878
[12], 0.3704 µM	0.804
[12], 1.111 µM	0.765
[12], 3.333 µM	0.578
[12], 10 µM	0.0118
